Measurements: paper PMC5355877, “The development of novel LTA4H modulators to selectively target LTB4 generation” (Scientific Reports, 2017)
Entries after “also recorded” stand apart in the source; their conditions may differ. Where two headings read alike, the source gives them in different places. Each block holds one compound with its values, some of them ahead of it.

How the values were obtained:
[1] = target: T1, LTA4H epoxide hydrolase activity (LTB4 generation) (Mus musculus, UniProt P24527); assay: LTA4H epoxide hydrolase activity: LTB4 generation by A23187-treated murine bone marrow neutrophils (EIA); type: cell-based
T1 construct: endogenous in cells; host or cells: murine bone marrow neutrophils
T1 sequence (P24527 1-611): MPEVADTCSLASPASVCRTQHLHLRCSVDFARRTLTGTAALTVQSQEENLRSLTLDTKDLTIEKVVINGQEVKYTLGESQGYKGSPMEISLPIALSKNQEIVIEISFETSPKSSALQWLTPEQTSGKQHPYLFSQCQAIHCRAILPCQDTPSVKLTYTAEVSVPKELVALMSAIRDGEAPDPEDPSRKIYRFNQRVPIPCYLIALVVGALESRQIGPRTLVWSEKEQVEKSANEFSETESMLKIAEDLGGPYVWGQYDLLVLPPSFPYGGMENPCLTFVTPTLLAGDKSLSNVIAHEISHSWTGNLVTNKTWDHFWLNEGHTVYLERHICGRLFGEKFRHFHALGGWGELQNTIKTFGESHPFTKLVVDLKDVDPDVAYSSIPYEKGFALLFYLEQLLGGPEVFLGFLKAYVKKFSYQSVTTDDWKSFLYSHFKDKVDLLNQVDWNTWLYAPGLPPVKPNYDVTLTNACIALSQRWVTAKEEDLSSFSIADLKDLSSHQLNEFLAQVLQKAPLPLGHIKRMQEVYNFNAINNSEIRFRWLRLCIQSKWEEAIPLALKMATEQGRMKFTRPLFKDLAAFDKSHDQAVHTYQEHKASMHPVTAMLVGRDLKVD
Procedure: To isolate murine bone marrow neutrophils, the femur and the tibia from both hind legs were removed and freed of soft tissue attachments, and the extreme distal tip of each extremity cut off. HBSS containing 15 mM EDTA and 30 mM HEPES was forced through the bone with a syringe. After dispersing cell clumps and passage through a […] sieve (BD labware, New Jersey), red blood cells were lysed by resuspending pellets in ACK buffer (for 3 minutes at room temperature) before centrifugation (800 × g, 5 min) and washing with HBSS. The cell suspension was centrifuged (800 × g, 5 min, 4 °C) and resuspended in RPMI.
1% DMSO was used as a control. Cells were incubated for 20 minutes at 37 °C, and the reaction was terminated by centrifugation (600 × g, 5 min, 4 °C). Supernatants were removed and stored at −80 °C for subsequent LTB4 analysis. The concentration of LTB4 generated in the epoxide hydrolase activity assay was assayed using an EIA, according to manufacturer’s directions (R&D systems, Minneapolis, MN). Test compounds were assayed in a blinded manner by an investigator during determination of effect on LTA4H epoxide hydrolase activity.

[2] = target: T2, recombinant human LTA4H (aminopeptidase, PGP substrate) (Homo sapiens, UniProt P09960); assay: LTA4H aminopeptidase activity: PGP degradation by recombinant human LTA4H; type: biochemical
T2 construct: purchased Cayman Chemicals
T2 sequence (P09960 1-611): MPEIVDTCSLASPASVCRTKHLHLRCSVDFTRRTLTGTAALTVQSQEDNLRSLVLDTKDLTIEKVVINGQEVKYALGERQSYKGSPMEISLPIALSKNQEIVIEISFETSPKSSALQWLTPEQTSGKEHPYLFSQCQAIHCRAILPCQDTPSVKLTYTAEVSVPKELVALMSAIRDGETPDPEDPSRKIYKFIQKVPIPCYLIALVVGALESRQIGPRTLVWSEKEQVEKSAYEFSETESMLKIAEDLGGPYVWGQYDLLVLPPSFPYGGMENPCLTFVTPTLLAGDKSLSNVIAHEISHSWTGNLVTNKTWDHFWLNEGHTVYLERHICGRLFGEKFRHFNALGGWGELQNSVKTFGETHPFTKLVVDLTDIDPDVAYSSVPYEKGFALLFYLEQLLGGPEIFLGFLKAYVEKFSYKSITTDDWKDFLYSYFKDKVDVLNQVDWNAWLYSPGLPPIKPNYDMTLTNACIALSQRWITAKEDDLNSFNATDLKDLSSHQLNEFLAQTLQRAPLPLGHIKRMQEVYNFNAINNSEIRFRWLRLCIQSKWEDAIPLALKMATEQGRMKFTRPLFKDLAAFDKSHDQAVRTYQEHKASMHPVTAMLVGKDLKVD
Procedure: (§1) For peptide quantification in serum, PGP and AcPGP were measured using a MDS Sciex API-4000 spectrometer (Applied Biosystems, Foster City, CA) equipped with a Shimadzu HPLC (Columbia, MD). For peptide quantification from degradation experiments, PGP and AcPGP were measured using a Thermo Accela Pump and Autosampler coupled to a Thermo TSQ Quantum Access. […] Peak area was measured, and PGP/AcPGP peptide concentrations were calculated using a relative standard curve method as previously described.
(§2) Mouse serum (diluted 1/10 in PBS) or recombinant human LTA4H (0.1 μg/ml; Cayman Chemicals, Michigan, USA) were incubated with 0.4 mM PGP at 37 °C in 5% CO2 for varying periods of time. Concentrations of PGP remaining were subsequently quantified by ESI-LC/MS/MS (as discussed above) by comparison with PGP standards. The percentage of peptide degraded was determined relative to control samples of 0.4 mM PGP alone. PGP degradation was also assessed by measurement of free proline released and its ensuing reaction with Ninhydrin (as discussed below). Test compounds were assayed in a blinded manner by an investigator during determination of the effect on LTA4H aminopeptidase activity.
To assess free proline liberated, aliquots from PGP degradation experiments were diluted 1 in 10 in PBS (to a final volume of 250 μl). Glacial acetic acid (250 μl) was then added, followed by 250 μl of ninhydrin solution (25 mg/ml in acetic acid/6 M phosphoric acid; heated at 70 °C to dissolve). The reaction mixture was heated at 100 °C for 60 minutes, allowed to cool to room temperature and the proline containing fraction extracted with 500 μl of toluene and optical density measured at 520 nm.

[3] = target: T3, LTA4H aminopeptidase activity (Ala-p-nitroanilide substrate) (Homo sapiens, UniProt P09960); parameters: method as in PMID 21983441; conditions: read-out: AC50 for augmenting aminopeptidase activity; cited from earlier work
T3 sequence (P09960 1-611): T2 sequence (P09960 1-611)

[4] = target: T3, LTA4H aminopeptidase activity (Ala-p-nitroanilide substrate); assay: LTA4H aminopeptidase activity versus Ala-p-nitroanilide substrate; type: biochemical; conditions: in our hands
[5] = Human plasma protein binding; type: in vitro ADME
Excerpt: (§3) ARM1 (4-(4-benzylphenyl)-1,3-thiazole-2-amine), compound 11 (7-hydroxy-3-(4-hydroxyphenyl)-4H-chromen-4-one) and compound 13 (7-hydroxy-3-phenyl-4H-chromen-4-one) were all purchased from VitasMLab (Kowloon, Hong Kong). […] All other compounds were custom synthesized by Peakdale Molecular as described in Supplementary Information. ADMET (absorption, distribution, metabolism, and excretion – toxicity) studies were also outsourced to Peakdale Molecular.

[6] = Mouse plasma protein binding; type: in vitro ADME
Excerpt: as §3

[7] = Mouse liver microsome stability; type: in vitro ADME; conditions: liver microsomes
Excerpt: as §3

logD pH7.4 = type: physicochemical; conditions: pH 7.4; read-out: logDpH7.4
Excerpt: as §3

[8] = Human liver microsome stability; type: in vitro ADME; conditions: liver microsomes
Excerpt: as §3

serum PGP = assay: Absolute serum PGP concentrations after oral dosing of mice; type: in vivo; conditions: 10 mg/kg orally, naïve female BALB/c mice, blood 4 h after dosing
Procedure: (§4) Blood was obtained from mice 4 h after oral dosing and downstream analysis performed blinded by an independent researcher. […] The reaction was terminated by centrifugation (600 × g, 5 min, 4 °C). Supernatants were analyzed for LTB4 by EIA (see below). To assess inhibition of aminopeptidase activity, PGP degrading capacity of serum was assessed as detailed below. Furthermore, absolute concentrations of PGP in serum was determined as detailed below.
as §1

[9] = test system: serum aminopeptidase PGP-degrading activity; assay: Serum aminopeptidase PGP-degrading activity after oral dosing of mice; type: in vivo; conditions: 10 mg/kg orally, naïve female BALB/c mice, blood 4 h after dosing
Procedure: as §4, §2

LTB4 generation = conditions: oral administration to naïve mice; cited from earlier work
[10] = LTB4 generation, murine neutrophils, Table 2, read-out: Epoxide Hydrolase IC50 ± SEM
[11] = PGP degradation, Table 2, read-out: Aminopeptidase IC50 ± SEM
[12] = LTB4 generation, murine neutrophils, Table 1, read-out: Epoxide Hydrolase IC50 ± SEM
[13] = LTB4 generation, murine neutrophils, Table 3, read-out: Epoxide Hydrolase IC50 ± SEM
[14] = PGP degradation, Table 3, read-out: Aminopeptidase IC50 ± SEM

Structure (SMILES): Oc1ccc(/C=C\c2cc(O)cc(O)c2)cc1 [Compound 2, cis-Resveratrol]
- IC50 [1, 10]: 14.3 ± 2.1 µM

Structure (SMILES): COc1ccc(/C=C/c2cc(OC)cc(OC)c2)cc1 [Compound 3, trans-trismethoxy Resveratrol]
- IC50 [1, 10]: 41.2 ± 5.5 µM
- IC50 [2, 11]: 68.8 ± 9.9 µM

Structure (SMILES): CC(=O)Oc1ccc(/C=C/c2cc(OC(C)=O)cc(OC(C)=O)c2)cc1 [Compound 4, 5-[(1E)-2-[4-(acetyloxy)phenyl]ethenyl]-1,3-Benzenediol-1,3-diacetate]
- IC50 [1]: 38.6 ± 5.9 µM
- IC50 [2, 11]: > 100 µM

Structure (SMILES): COc1cc(O)cc(/C=C/c2ccc(O)cc2)c1 [Compound 5, 3-[(1E)-2-(4-hydroxyphenyl)ethenyl]-5-methoxyphenol hydrate]
- IC50 [1, 10]: 3.9 ± 0.4 µM
- IC50 [2]: 99.5 ± 22.6 µM

Structure (SMILES): O=C(O)CCCN1CCC[C@H]1COc1ccc(Oc2ccc(Cl)cc2)cc1 [DG-051, 4-[(2S)-2-{[4-(4-chlorophenoxy)phenoxy]methyl}-1-pyrrolidinyl]butanoic acid, reference compound]
- IC50 [1, 12]: 0.68 ± 0.01 µM

Structure (SMILES): CC(=O)NC1CC2CCC(C1)N2Cc1ccc(Oc2nc3ncccc3s2)cc1 (stereo not drawn) [JNJ-40929837]
- serum PGP (serum PGP): serum accumulation of PGP
- IC50 [1]: 0.009 ± 9e-05 µM
- serum aminopeptidase PGP-degrading activity [9]: potently abrogates; also recorded: potently inhibited
- IC50 [2]: 0.0094 ± 0.0013 µM

Structure (SMILES): CN(CCCOc1ccc(Cc2ccccc2)cc1)CCC(=O)O.Cl [SC57461A, 3-[methyl[3-[4-(phenylmethyl)phenoxy]propyl]amino]propanoic acid HCl]
- serum PGP (serum PGP): serum accumulation of PGP
- inhibition of LTB4 generation in ex vivo whole blood assay (LTB4 generation): potent inhibition
- IC50 [1, 12]: 0.11 ± 0.0235 µM
- serum aminopeptidase PGP-degrading activity [9]: potently abrogates; also recorded: potently inhibited

The next lines start with results.

- IC50 [1, 12]: 48.9 µM
- effect on aminopeptidase activity versus Ala-p-nitroanilide substrate [4]: did promote aminopeptidase activity
- IC50 ([2]; PGP degradation, recombinant LTA4H, Table 1, read-out: Aminopeptidase IC50 ± SEM): 75.2 µM
Structure (SMILES): COc1ccc(Cc2ccccc2)cc1 [Compound 4-MDM, 4-Methoxydiphenylmethane, reference compound]
- AC50 [3]: 50 µM
- effect on aminopeptidase activity with physiological substrate PGP ([2]; PGP substrate): modest inhibition; also recorded: failed to augment PGP degradation

- IC50 [1, 10]: 6.4 ± 0.7 µM
- IC50 [2, 11]: > 100 µM
Structure (SMILES): COc1cc(O)cc(CCc2ccc(O)cc2)c1 [Compound 6]

- IC50 [1, 10]: 3.2 ± 0.7 µM
- IC50 [2, 11]: > 100 µM
Structure (SMILES): CCOc1cc(O)cc(CCc2ccc(O)cc2)c1 [Compound 7]

- IC50 [1, 10]: 1.7 ± 0.25 µM
- IC50 [2, 11]: > 100 µM
Structure (SMILES): COc1cc(O)cc(CCc2cccc(O)c2)c1 [Compound 8]

- IC50 [1, 13]: 34.2 ± 4.7 µM
- IC50 [2, 14]: > 100 µM
Structure (SMILES): O=C(Cc1ccc(O)cc1)c1ccc(O)cc1O [Compound 10, 1-(2,4-Dihydroxyphenyl)-2-(4-hydroxyphenyl)ethanone]

- fraction unbound [5]: 0.0326
- fraction unbound [6]: 0.0723
- microsomal CLint [7]: 8.9 ± 0.7 µL/min/mg
- half-life ([7]; read-out: Mouse liver microsomes t1/2): 1.3 ± 0.102 h
- logD (logD pH7.4): 1.24 ± 0.06
- IC50 [1, 13]: 7.3 ± 0.8 µM
- selectivity for hydrolase over peptidase inhibition ([1]; ratio of aminopeptidase to epoxide hydrolase IC50): > 8 fold
- microsomal CLint [8]: < 5 µL/min/mg
- half-life ([8]; read-out: Human liver microsomes t1/2): > 2.32 h
- IC50 [2, 14]: 62.7 ± 13.3 µM
Structure (SMILES): O=c1c(-c2ccc(O)cc2)coc2c(O)c(O)ccc12 [Compound 12, 7,8,4′-trihydroxyisoflavone]

- IC50 [1, 13]: 48.2 ± 14.6 µM
- IC50 [2, 14]: > 100 µM
Structure (SMILES): O=c1c(-c2ccccc2)coc2cc(O)ccc12 [Compound 13, 7-hydroxy-3-phenyl-4H-chromen-4-one]

- IC50 [1, 13]: 20.6 ± 2.4 µM
- IC50 [2, 14]: 20.6 ± 3.3 µM
Structure (SMILES): O=c1c(-c2ccc(O)cc2)coc2c3c(ccc12)OCO3 [Compound 14]

- IC50 [1, 13]: 1.2 ± 0.21 µM
- IC50 [2, 14]: 69.2 ± 10.9 µM
Structure (SMILES): Cc1ccc2c(=O)c(-c3ccc(O)cc3)coc2c1O [Compound 15]
